{"source": "paper PMC6692352", "about": "“DF2726A, a new IL-8 signalling inhibitor, is able to counteract chemotherapy-induced neuropathic pain” (Scientific Reports, 2019)", "key": {"[1]": {"assay": "Metabolic stability, human", "type": "in vitro ADME", "details": "Test conc: 2.5 µM", "text": "(§1) Table 1 Physicochemical and in Vitro ADME Properties of DF2726A. | column: DF2726A"}, "PI3K and p-Akt": {"tested_on": "PI3K and p-Akt", "assay": "PI3K and p-Akt western blotting in F11-derived neurons", "type": "cell-based", "details": "DF2726A 1 µM + oxaliplatin 20 µM, 24 h", "procedure": "Following neuronal differentiation, neurons were treated for 24 h with DF2726A (1 μM final concentration), oxaliplatin (Sigma-Aldrich; 20 µM final concentration), or the combination of the two molecules.\nControl and treated cells were collected and lysed in ice-cold RIPA buffer (PBS pH 7.4 containing 0.5% sodium deoxycolate, 1% Igepal, 0.1% SDS, 5 mM EDTA, 1% protease and phosphatase inhibitor cocktails; Sigma-Aldrich) as described in[22],[33]. Protein lysates (30 μg) were separated on 8–12% SDS-polyacrilamide gel and electroblotted onto polyvinyldifluoride membrane (PVDF; Sigma-Aldrich). Nonspecific binding sites were blocked by 5% non-fat dry milk (Bio-Rad Laboratories, Hercules, CA, USA) in Tris buffered saline (TBS: 20 mM Tris- HCl, pH 7.4, containing 150 mM NaCl) for 30 min at RT. […] The relative densities of immunoreactive bands were determined and normalized HRP-conjugated β-actin, using ImageJ software. […]"}, "CYP 1A2 [2]": {"molecular_target": "CYP 1A2 (Homo sapiens, UniProt P05177)", "sequence (P05177 whole entry)": "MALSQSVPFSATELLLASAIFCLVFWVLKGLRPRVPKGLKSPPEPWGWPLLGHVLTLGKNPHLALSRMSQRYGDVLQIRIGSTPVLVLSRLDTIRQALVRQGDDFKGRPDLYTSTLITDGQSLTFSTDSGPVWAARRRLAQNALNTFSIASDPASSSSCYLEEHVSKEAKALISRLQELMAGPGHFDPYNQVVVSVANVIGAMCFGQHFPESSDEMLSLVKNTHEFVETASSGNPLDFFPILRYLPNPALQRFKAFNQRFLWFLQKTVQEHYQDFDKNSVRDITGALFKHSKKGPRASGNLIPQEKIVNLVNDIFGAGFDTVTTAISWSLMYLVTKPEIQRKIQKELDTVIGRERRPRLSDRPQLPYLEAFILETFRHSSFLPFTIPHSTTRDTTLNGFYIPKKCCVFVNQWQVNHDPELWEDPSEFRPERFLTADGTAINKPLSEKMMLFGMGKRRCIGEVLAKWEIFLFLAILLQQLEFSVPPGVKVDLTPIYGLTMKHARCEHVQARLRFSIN", "type": "in vitro ADME", "text": "as §1"}, "CYP 1A2 [3]": {"tested_on": "CYP 1A2", "type": "in vitro ADME", "text": "as §1"}, "Iba-1": {"tested_on": "Iba-1", "assay": "Western blot of DRG of oxaliplatin rats, microglia marker Iba-1", "type": "in vivo, male Wistar rats", "details": "30 mg/kg os; p < 0.01 vs OXA rats", "procedure": "Animals were sacrificed and dorsal root ganglia (DRG) (L4-L6) were removed and stored at […]. They were homogenized on ice-cold lysis buffer [20 mM Tris–HCl (pH 7.5), 10 mM NaF, 150 mM NaCl, 1% Nonidet P-40, 1 mM phenylmethylsulfonyl fluoride, 1 mM Na3VO4, leupeptin and trypsin inhibitor 10 μg/mL; 20 µl/sample, as previously described.\nAfter 1 h, tissue lysates were obtained by centrifugation at 20,000 g for 15 min at 4 °C. Protein concentrations were estimated by the Bio-Rad protein assay using bovine serum albumin as standard.\nDRG lysate proteins (30 μg) were dissolved in Laemmli sample buffer, boiled for 5 min, and separated on SDS-polyacrylamide gel elctrophoresis and transferred onto nitrocellulose membrane (240 mA for 40 min at room temperature). […] The protein bands were scanned and densitometrically analyzed with a model GS-700 imaging densitometer (Bio-Rad Laboratories, Milan, Italy). […]"}, "Metabolic stability, dog": {"assay": "Metabolic stability, dog", "type": "in vitro ADME", "details": "Test conc: 2.5 µM", "text": "as §1"}, "P-glycoprotein (P-gp)": {"molecular_target": "T1, P-glycoprotein (P-gp) (Homo sapiens, UniProt P08183)", "T1 construct": "endogenous in cells; host or cells: Caco-2", "T1 sequence (P08183 whole entry)": "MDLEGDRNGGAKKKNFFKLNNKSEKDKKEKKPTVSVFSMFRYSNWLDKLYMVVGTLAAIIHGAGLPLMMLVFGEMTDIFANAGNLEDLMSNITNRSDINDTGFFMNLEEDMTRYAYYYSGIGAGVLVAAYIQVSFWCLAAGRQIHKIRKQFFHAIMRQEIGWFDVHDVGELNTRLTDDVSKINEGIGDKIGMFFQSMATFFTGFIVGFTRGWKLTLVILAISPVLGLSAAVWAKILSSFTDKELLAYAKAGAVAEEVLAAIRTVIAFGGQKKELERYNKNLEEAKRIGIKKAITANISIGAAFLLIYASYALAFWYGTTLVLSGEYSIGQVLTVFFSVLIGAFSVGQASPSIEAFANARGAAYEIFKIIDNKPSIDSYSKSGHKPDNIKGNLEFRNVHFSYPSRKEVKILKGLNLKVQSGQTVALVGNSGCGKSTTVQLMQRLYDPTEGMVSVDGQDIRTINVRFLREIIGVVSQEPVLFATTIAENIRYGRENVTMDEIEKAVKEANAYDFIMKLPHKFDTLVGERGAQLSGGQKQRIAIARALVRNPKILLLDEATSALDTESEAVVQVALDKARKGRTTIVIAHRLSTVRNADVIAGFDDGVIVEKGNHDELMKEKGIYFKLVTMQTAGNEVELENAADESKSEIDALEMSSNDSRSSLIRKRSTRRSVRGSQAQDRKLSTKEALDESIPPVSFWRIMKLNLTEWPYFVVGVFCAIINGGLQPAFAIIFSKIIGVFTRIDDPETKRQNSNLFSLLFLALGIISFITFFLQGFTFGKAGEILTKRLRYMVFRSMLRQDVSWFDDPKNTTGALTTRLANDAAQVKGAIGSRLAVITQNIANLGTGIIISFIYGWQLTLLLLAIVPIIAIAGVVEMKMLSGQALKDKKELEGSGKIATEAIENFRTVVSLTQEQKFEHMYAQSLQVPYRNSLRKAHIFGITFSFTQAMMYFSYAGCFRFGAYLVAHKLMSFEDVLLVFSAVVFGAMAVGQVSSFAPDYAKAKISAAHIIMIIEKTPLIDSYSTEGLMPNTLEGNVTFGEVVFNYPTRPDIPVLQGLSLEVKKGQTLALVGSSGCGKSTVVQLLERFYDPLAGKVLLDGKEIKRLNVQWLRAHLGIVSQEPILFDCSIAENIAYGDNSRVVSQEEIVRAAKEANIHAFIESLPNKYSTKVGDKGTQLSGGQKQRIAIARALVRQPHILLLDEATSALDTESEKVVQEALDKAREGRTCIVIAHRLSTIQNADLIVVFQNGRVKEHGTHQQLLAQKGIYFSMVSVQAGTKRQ", "assay": "P-gp inhibition (Caco-2 cell assay)", "type": "in vitro ADME"}, "[4]": {"assay": "pKa, logD7.4, logP (SiriusT3 titration)", "type": "physicochemical", "procedure": "vehicle were seeded in the upper compartment. The two compartments were separated by 5 µm pre-size polycarbonate filter (polyvinylpyrrolidone-free for PMN chemotaxis). The chamber was […]\nPhysicochemical characterization […]\nand a turbidity-sensing device. […]\nwater/HBSS to a final concentration of 10 μM. Cell membrane homogenates (48 μg protein) were […]"}, "CYP 2C9": {"molecular_target": "CYP 2C9 (Homo sapiens, UniProt P11712)", "sequence (P11712 whole entry)": "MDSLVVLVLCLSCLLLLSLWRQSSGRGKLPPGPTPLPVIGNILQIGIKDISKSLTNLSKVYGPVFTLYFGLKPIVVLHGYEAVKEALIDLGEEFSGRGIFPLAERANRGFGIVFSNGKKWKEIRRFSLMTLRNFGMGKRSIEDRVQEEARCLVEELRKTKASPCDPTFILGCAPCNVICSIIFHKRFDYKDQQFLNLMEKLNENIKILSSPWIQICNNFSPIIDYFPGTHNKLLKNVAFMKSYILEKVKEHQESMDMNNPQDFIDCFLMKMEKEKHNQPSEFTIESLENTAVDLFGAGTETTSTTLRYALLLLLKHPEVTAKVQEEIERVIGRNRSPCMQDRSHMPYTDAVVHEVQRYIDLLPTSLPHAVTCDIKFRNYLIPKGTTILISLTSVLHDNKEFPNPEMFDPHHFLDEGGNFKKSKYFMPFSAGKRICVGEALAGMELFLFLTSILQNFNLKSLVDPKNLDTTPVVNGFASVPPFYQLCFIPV", "assay": "CYP inhibition 2C9", "type": "in vitro ADME", "text": "as §1"}, "CYP 2D6": {"molecular_target": "CYP 2D6 (Homo sapiens, UniProt P10635)", "sequence (P10635 whole entry)": "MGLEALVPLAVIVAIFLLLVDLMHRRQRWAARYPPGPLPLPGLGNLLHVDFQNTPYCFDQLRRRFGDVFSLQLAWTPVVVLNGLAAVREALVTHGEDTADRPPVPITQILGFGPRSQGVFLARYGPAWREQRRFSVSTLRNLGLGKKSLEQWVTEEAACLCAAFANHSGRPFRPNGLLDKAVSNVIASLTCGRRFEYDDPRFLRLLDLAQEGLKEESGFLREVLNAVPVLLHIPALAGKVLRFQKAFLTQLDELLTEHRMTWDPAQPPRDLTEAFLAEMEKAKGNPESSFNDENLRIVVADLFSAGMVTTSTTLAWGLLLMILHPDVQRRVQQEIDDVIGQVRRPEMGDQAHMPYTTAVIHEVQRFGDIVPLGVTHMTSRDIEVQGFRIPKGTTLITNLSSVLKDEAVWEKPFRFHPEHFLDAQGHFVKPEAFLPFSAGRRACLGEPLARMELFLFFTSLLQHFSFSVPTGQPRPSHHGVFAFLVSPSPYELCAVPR", "assay": "CYP inhibition 2D6", "type": "in vitro ADME", "text": "as §1"}}}
{"smiles": "CC(C)(C(=O)O)c1ccc(Nc2nc(C(F)(F)F)cs2)cc1", "note": "[DF2726A]", "values": [{"measurement": "Metabolic stability human", "setting": "[1]", "value": 7.0, "unit": "µL/min/10^6 cells"}, {"measurement": "PI3K and p-Akt protein levels, oxaliplatin-treated neurons", "setting": "PI3K and p-Akt", "value": "comparable to those of control cells"}, {"measurement": "IC50", "setting": "CYP 1A2 [2]", "value": "> 30", "unit": "µM"}, {"measurement": "IC50", "setting": "CYP 1A2 [3]", "value": "> 100", "unit": "µM"}, {"measurement": "Iba-1 expression in DRG of oxaliplatin rats", "setting": "Iba-1", "value": "significantly reduced the expression"}, {"measurement": "Metabolic stability dog", "setting": "Metabolic stability, dog", "value": 7.2, "unit": "µL/min/10^6 cells"}, {"measurement": "P-glycoprotein (P-gp) inhibition", "setting": "P-glycoprotein (P-gp)", "value": "no P-glycoprotein (P-gp) inhibition"}, {"measurement": "logP", "setting": "[4]", "value": 4.3}, {"measurement": "pKa", "setting": "[4]; 0.15 M KCl, 25 ± 1°C", "value": 4.14}, {"measurement": "logD7.4", "setting": "[4]; pH 7.4", "value": 0.75}, {"measurement": "IC50", "setting": "CYP 2C9", "value": "> 30", "unit": "µM"}, {"measurement": "IC50", "setting": "CYP 2D6", "value": "> 30", "unit": "µM"}]}
